Results: ChEMBL document CHEMBL1140020, “Synthesis and biological evaluation of 4'-(6,7-disubstituted-2,4-dihydro-indeno[1,2-c]pyrazol-3-yl)-biphenyl-4-ol as potent Chk1 inhibitors” (Bioorg Med Chem Lett, 2007)
Active and inactive are the calls of the source. The calls are words filed in the database; no cut-off is given here.

Assays:
[1] = target: T1, Serine/threonine-protein kinase Chk1 (Homo sapiens, UniProt O14757); experiment: Inhibition of Chk1
T1 sequence (O14757 whole entry): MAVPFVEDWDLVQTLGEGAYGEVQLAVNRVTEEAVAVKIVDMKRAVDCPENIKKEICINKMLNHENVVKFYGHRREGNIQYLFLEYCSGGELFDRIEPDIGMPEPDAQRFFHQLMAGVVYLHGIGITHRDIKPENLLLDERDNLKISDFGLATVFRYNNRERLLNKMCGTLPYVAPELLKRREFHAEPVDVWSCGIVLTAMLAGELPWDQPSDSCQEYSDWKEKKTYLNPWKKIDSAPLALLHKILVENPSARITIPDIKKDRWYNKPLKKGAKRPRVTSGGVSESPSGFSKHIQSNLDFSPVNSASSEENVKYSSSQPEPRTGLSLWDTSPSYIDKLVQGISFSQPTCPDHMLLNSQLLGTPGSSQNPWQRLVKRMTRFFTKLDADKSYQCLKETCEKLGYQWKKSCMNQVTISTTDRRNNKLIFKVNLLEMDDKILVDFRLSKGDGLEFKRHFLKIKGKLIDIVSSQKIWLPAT

HeLa = experiment: Cytotoxicity against HeLa cells by MTS assay; format: cell-based; details: Homo sapiens
[2] = Cell cycle arrest in H1299 cells by accumulation at G2/M phase by FACS analysis; format: functional, cell-based; details: Homo sapiens, NCI-H1299
NCI-H1299 = experiment: Inhibition of doxorubicin-induced cell cycle arrest in H1299 cells by accumulation at G2/M phase by FACS analysis; format: functional, cell-based; details: Homo sapiens
SW-620 = experiment: Inhibition of camptothecin-induced cell cycle arrest in SW620 cells by accumulation at S phase by FACS analysis; format: functional, cell-based; details: Homo sapiens

| IC50 [1] | SMILES | EC50 (HeLa) | also measured |
| --- | --- | --- | --- |
| 0.2 nM | COc1cc2c(cc1OC1CCOCC1)Cc1c(-c3ccc(-c4ccc(O)cc4)cc3)n[nH]c1-2 | – | – |
| 25 nM | COc1cc2c(cc1OCCCN1CCN(c3ccccc3OC)CC1)Cc1c(-c3ccc(-c4ccc(O)cc4)cc3)n[nH]c1-2 | – | – |
| 0.8 nM | COc1cc2c(cc1OCC1CCOC1)Cc1c-2n[nH]c1-c1ccc(-c2ccc(O)cc2)cc1 (stereo unspecified) | – | – |
| 0.1 nM | COc1cc2c(cc1OC[C@@H](O)CO)Cc1c-2n[nH]c1-c1ccc(-c2ccc(O)cc2)cc1 | 3500 nM | – |
| 2 nM | COc1cc2c(cc1OCC[C@@H]1CCCN1)Cc1c(-c3ccc(-c4ccc(O)cc4)cc3)n[nH]c1-2 | – | – |
| 5 nM | COc1cc2c(cc1O)-c1[nH]nc(-c3ccc(-c4ccc(O)cc4)cc3)c1C2 | – | – |
| 290 nM | COc1cc2c(cc1OC(F)(F)F)-c1[nH]nc(-c3ccc(-c4ccc(O)cc4)cc3)c1C2 | – | – |
| 4 nM | COc1cc2c(cc1OCCCN1CCCCC1)Cc1c-2n[nH]c1-c1ccc(-c2ccc(O)cc2)cc1 | 2300 nM | EC50 [2]: > 10000 nM; EC50 (NCI-H1299): 400 nM |
| 2 nM | COc1cc2c(cc1OCCN1CCOCC1)Cc1c(-c3ccc(-c4ccc(O)cc4)cc3)n[nH]c1-2 | – | – |
| 3 nM | COc1cc2c(cc1OCCn1ccnc1)-c1n[nH]c(-c3ccc(-c4ccc(O)cc4)cc3)c1C2 | 1900 nM | – |
| 20 nM | COc1cc2c(cc1OCc1ccccn1)Cc1c(-c3ccc(-c4ccc(O)cc4)cc3)n[nH]c1-2 | – | – |
| 2 nM | COc1cc2c(cc1OCCN(C)C)Cc1c-2n[nH]c1-c1ccc(-c2ccc(O)cc2)cc1 | – | – |
| 24 nM | COc1cc2c(cc1OCc1ccccn1)-c1n[nH]c(-c3ccc(-c4ccc(O)cc4)cc3)c1C2 | > 59300 nM | EC50 [2]: > 50000 nM; EC50 (NCI-H1299): 800 nM |
| 13 nM | COc1cc2c(cc1OCCc1cccnc1)Cc1c(-c3ccc(-c4ccc(O)cc4)cc3)n[nH]c1-2 | – | – |
| 0.6 nM | CCN1CCCC(Oc2cc3c(cc2OC)Cc2c-3n[nH]c2-c2ccc(-c3ccc(O)cc3)cc2)C1 (stereo unspecified) | – | – |
| 5 nM | COc1cc2c(cc1OCCN1CCOCC1)-c1n[nH]c(-c3ccc(-c4ccc(O)cc4)cc3)c1C2 | – | – |
| 36 nM | COc1cc2c(cc1OCc1ccncc1)-c1[nH]nc(-c3ccc(-c4ccc(O)cc4)cc3)c1C2 | – | – |
| 0.8 nM | COc1cc2c(cc1OCCC1CCCN1C)-c1[nH]nc(-c3ccc(-c4ccc(O)cc4)cc3)c1C2 (stereo unspecified) | – | – |
| 8 nM | COc1cc2c(cc1OCCCN1CCN(c3cccc(Cl)c3)CC1)Cc1c-2n[nH]c1-c1ccc(-c2ccc(O)cc2)cc1 | – | – |
| – | COc1cc2c(cc1OC)-c1n[nH]c(-c3ccc(-c4ccc(O)cc4)cc3)c1C2 | > 59300 nM | EC50 [2]: > 50000 nM; EC50 (NCI-H1299): 200 nM; Activity (SW-620): Active |
| 0.6 nM | COc1cc2c(cc1OCC(C)CN(C)C)-c1n[nH]c(-c3ccc(-c4ccc(O)cc4)cc3)c1C2 (stereo unspecified) | 1600 nM | – |
| 0.7 nM | COc1cc2c(cc1OC[C@H]1CC=CCC1)Cc1c-2n[nH]c1-c1ccc(-c2ccc(O)cc2)cc1 | – | – |
| 0.8 nM | COc1cc2c(cc1OCCN(C)C)-c1[nH]nc(-c3ccc(-c4ccc(O)cc4)cc3)c1C2 | – | – |

| IC50 [1] | SMILES | EC50 (HeLa) | also measured |
| --- | --- | --- | --- |
| < 0.1 nM | COc1cc2c(cc1OC(CO)CO)Cc1c-2n[nH]c1-c1ccc(-c2ccc(O)cc2)cc1 | – | – |
| 8 nM | COc1cc2c(cc1OCc1ccncc1)Cc1c-2n[nH]c1-c1ccc(-c2ccc(O)cc2)cc1 | 3200 nM | – |
| 1 nM | COc1cc2c(cc1O)Cc1c(-c3ccc(-c4ccc(O)cc4)cc3)n[nH]c1-2 | – | – |
| 48 nM | COc1cc2c(cc1OC(=O)NCc1ccccn1)-c1[nH]nc(-c3ccc(-c4ccc(O)cc4)cc3)c1C2 | – | – |
| 10 nM | COc1cc2c(cc1OCCCN1CCN(c3cccc(Cl)c3)CC1)-c1n[nH]c(-c3ccc(-c4ccc(O)cc4)cc3)c1C2 | – | – |
| 0.2 nM | COc1cc2c(cc1OCCCN1CCN(C)CC1)-c1n[nH]c(-c3ccc(-c4ccc(O)cc4)cc3)c1C2 | – | – |
| 5 nM | COc1cc2c(cc1OCCc1ccncc1)Cc1c-2n[nH]c1-c1ccc(-c2ccc(O)cc2)cc1 | – | – |
| 2 nM | COc1cc2c(cc1OCCN1CCCC1)-c1[nH]nc(-c3ccc(-c4ccc(O)cc4)cc3)c1C2 | – | – |
| 62 nM | COc1cc2c(cc1CCOCCCc1cccc(C)n1)Cc1c-2n[nH]c1-c1ccc(-c2ccc(O)cc2)cc1 | 4100 nM | EC50 [2]: > 10000 nM; EC50 (NCI-H1299): 400 nM |
| 5 nM | COc1cc2c(cc1OCCn1ccnc1)Cc1c-2n[nH]c1-c1ccc(-c2ccc(O)cc2)cc1 | – | – |
| 23 nM | CCc1ccc(CCOc2cc3c(cc2OC)-c2n[nH]c(-c4ccc(-c5ccc(O)cc5)cc4)c2C3)nc1 | 29400 nM | EC50 [2]: > 10000 nM; EC50 (NCI-H1299): 500 nM |
| 0.4 nM | COc1cc2c(cc1OC1CCOC1)Cc1c-2n[nH]c1-c1ccc(-c2ccc(O)cc2)cc1 (stereo unspecified) | 49000 nM | – |
| 0.8 nM | COc1cc2c(cc1OCCN1CCCC1)Cc1c(-c3ccc(-c4ccc(O)cc4)cc3)n[nH]c1-2 | – | – |
| 2 nM | CCN(CC)CC(CN(CC)CC)Oc1cc2c(cc1OC)Cc1c(-c3ccc(-c4ccc(O)cc4)cc3)n[nH]c1-2 | – | – |
| 2 nM | COc1cc2c(cc1OC(C)CN(C)C)Cc1c-2n[nH]c1-c1ccc(-c2ccc(O)cc2)cc1 (stereo unspecified) | – | – |
| 6 nM | COc1cc2c(cc1OCCCN1CCOCC1)Cc1c-2n[nH]c1-c1ccc(-c2ccc(O)cc2)cc1 | 4300 nM | – |
| 30 nM | COc1cc2c(cc1OCCc1ccccn1)Cc1c-2n[nH]c1-c1ccc(-c2ccc(O)cc2)cc1 | 3400 nM | EC50 [2]: > 10000 nM; EC50 (NCI-H1299): 600 nM |
| 0.1 nM | COc1cc2c(cc1OC[C@H](O)CO)Cc1c-2n[nH]c1-c1ccc(-c2ccc(O)cc2)cc1 | 7700 nM | EC50 [2]: > 50000 nM; EC50 (NCI-H1299): 200 nM |
| 1 nM | COc1cc2c(cc1OCCN1CCCCC1)Cc1c-2n[nH]c1-c1ccc(-c2ccc(O)cc2)cc1 | – | – |
| 23 nM | COc1cc2c(cc1OCc1cccnc1)-c1n[nH]c(-c3ccc(-c4ccc(O)cc4)cc3)c1C2 | 35200 nM | EC50 [2]: > 50000 nM; EC50 (NCI-H1299): 300 nM |
| 2 nM | COc1cc2c(cc1OC(C)CN(C)C)-c1n[nH]c(-c3ccc(-c4ccc(O)cc4)cc3)c1C2 (stereo unspecified) | – | – |
| 0.7 nM | COc1cc2c(cc1OCCCN(C)C)Cc1c-2n[nH]c1-c1ccc(-c2ccc(O)cc2)cc1 | 800 nM | – |
| 18 nM | COc1cc2c(cc1OCc1cccnc1)Cc1c-2n[nH]c1-c1ccc(-c2ccc(O)cc2)cc1 | > 59300 nM | – |

| SMILES | IC50 [1] | EC50 (HeLa) | also measured |
| --- | --- | --- | --- |
| COc1cc2c(cc1OC(=O)NCCN1CCOCC1)-c1[nH]nc(-c3ccc(-c4ccc(O)cc4)cc3)c1C2 | 74 nM | – | – |
| COc1cc2c(cc1OC(=O)NCCN1CCCC1)-c1[nH]nc(-c3ccc(-c4ccc(O)cc4)cc3)c1C2 | 21 nM | – | – |
| COc1cc2c(cc1OC(=O)NCCN(C)C)-c1[nH]nc(-c3ccc(-c4ccc(O)cc4)cc3)c1C2 | 40 nM | – | – |
